Experimental data taken from patent publication US7179801B2, “Cephem compounds” (Astellas Pharma Inc., priority 2001, dated 2007).
Converted amounts (≈) assume the structure as drawn.

System: Pseudomonas aeruginosa FP 2056
Experiment: In vitro antibacterial activity (MIC), two-fold agar-plate dilution method
Type: cell-based
Settings: FP2056; test strain Pseudomonas aeruginosa FP 2056; heart infusion agar, 37° C. for 20 hours; read-out: MIC (minimal inhibitory concentration)
Procedure: In vitro antibacterial activity was determined by the two-fold agar-plate dilution method as described below. One loopful of an overnight culture of each test strain in Trypticase-soy broth (10^6 viable cells per ml) was streaked-on heart infusion agar (HI-agar) containing graded concentrations of representative test compound, and the minimal inhibitory concentration (MIC) was expressed in μg/ml after incubation at 37° C. for 20 hours.

Cn1c(N)c(CCCN)c[n+]1CC1=C(C(=O)[O-])N2C(=O)[C@@H](NC(=O)/C(=N\OC(C)(C)C(=O)O)c3nsc(N)n3)[C@H]2SC1 [Compound (a), 7β-[(Z)-2-(5-amino-1,2,4-thiadiazol-3-yl)-2-(1-carboxy-1-methylethoxyimino)acetamido]-3-[3-amino-4-(3-aminopropyl)-2-methyl-1-pyrazolio]methyl-3-cephem-4-carboxylate]
MIC: 1 µg/mL (≈ 1.61 µM)

Cn1c(N)c(CCN)c[n+]1CC1=C(C(=O)[O-])N2C(=O)[C@@H](NC(=O)/C(=N\OC(C)(C)C(=O)O)c3nsc(N)n3)[C@H]2SC1 [Compound (b), 7β-[(Z)-2-(5-amino-1,2,4-thiadiazol-3-yl)-2-(1-carboxy-1-methylethoxyimino)acetamido]-3-[3-amino-4-(2-aminoethyl)-2-methyl-1-pyrazolio]methyl-3-cephem-4-carboxylate]
MIC: 0.5 µg/mL (≈ 0.821 µM)
